Measured values published in patent publication US12583852B2, “Heterocycle derivative” (JW PHARMACEUTICAL CORPORATION, priority 2018, dated 2026).

Test system: human dermal papilla cells
Test: Promotion of proliferation of human dermal papilla cells (CellTiter-Glo Luminescent cell viability assay)
Assay type: cell-based
Settings: human dermal papilla cells (ScienCell, 2499); drug 0 to 30 μM; 48 hours; CellTiter-Glo luminescence; compared to DMSO-treated control group
Procedure: The effect of promoting cell proliferation by the drug was analyzed using human dermal papilla cells (ScienCell, 2499). Human dermal papilla cells cultured using Mesenchymal Stem Cell Medium (ScienCell, 7501) medium were seeded at a density of 3×10^3 cells/well and in a volume of 100 μl in a 96-well plate, incubated overnight at 37° C. and 5% CO2, treated with the drug at different concentrations ranging from 0 to 30 μM in a volume of 100 μL, and incubated at 37° C. and 5% CO2 for 48 hours. CellTiter-Glo Luminescent cell viability assay was performed according to the manufacturer's protocol (Promega, G7573) to detect cell proliferation. Luminescence was measured using an Envision 2102 multilabeled reader (PerkinElmer) equipment, and the cell proliferation rate was analyzed by the activity of the drug-treated group compared to the DMSO-treated group (control group), which is a solvent of the drug.

Molecule	Maximum DP cell proliferation (%)
3-chloro-N-(2,3-dihydro-1H-inden-4-yl)-5-fluoro-1H-pyrazolo[3,4-b]pyridin-6-amine [Compound 8]	7.9%
Nc1n[nH]c2nc(Nc3cccc4c3CCC4)c(F)cc12 [Compound 3, N6-(2,3-dihydro-1H-inden-4-yl)-5-fluoro-1H-pyrazolo[3,4-b]pyridine-3,6-diamine]	23%
Nc1n[nH]c2nc(Nc3cccc4c3CCC4)ccc12 [Compound 4, N6-(2,3-dihydro-1H-inden-4-yl)-1H-pyrazolo[3,4-b]pyridine-3,6-diamine]	4%
CC(C)(C)c1cccc(Nc2nc3[nH]nc(N)c3cc2F)c1 [Compound 5, N6-(3-(tert-butyl)phenyl)-5-fluoro-1H-pyrazolo[3,4-b]pyridine-3,6-diamine]	7.4%
Cn1ccc2c(Nc3nc4[nH]nc(N)c4cc3F)cccc21 [Compound 6, 5-fluoro-N6-(1-methyl-1H-indol-4-yl)-1H-pyrazolo[3,4-b]pyridine-3,6-diamine]	7%
Nc1n[nH]c2nc(Nc3cccc4c3COC4)c(F)cc12 [Compound 9, N6-(1,3-dihydroisobenzofuran-4-yl)-5-fluoro-1H-pyrazolo[3,4-b]pyridine-3,6-diamine]	2.6%
Nc1n[nH]c2nc(Nc3cccc4occc34)c(F)cc12 [Compound 10, N6-(benzofuran-4-yl)-5-fluoro-1H-pyrazolo[3,4-b]pyridine-3,6-diamine]	13%
Cc1cccc(Nc2nc3[nH]nc(N)c3cc2F)c1C [Compound 12, N6-(2,3-dimethylphenyl)-5-fluoro-1H-pyrazolo[3,4-b]pyridine-3,6-diamine]	5.4%
CCOC(=O)c1cc2c(N)n[nH]c2nc1Nc1cccc2c1CCC2 [Compound 14, ethyl 3-amino-6-((2,3-dihydro-1H-inden-4-yl)amino)-1H-pyrazolo[3,4-b]pyridine-5-carboxylate]	5.3%
Nc1n[nH]c2nc(Nc3cccc4c3CCC4)cnc12 [Compound 15, N6-(2,3-dihydro-1H-inden-4-yl)-1H-pyrazolo[3,4-b]pyrazine-3,6-diamine]	24%
Nc1n[nH]c2nc(Nc3cccc4c3CCC4)c(C(=O)O)cc12 [Compound 16, 3-amino-6-((2,3-dihydro-1H-inden-4-yl)amino)-1H-pyrazolo[3,4-b]pyridine-5-carboxylic acid]	6.1%
Cc1c(Cl)c(Nc2cccc3c2CCC3)nc2[nH]nc(N)c12 [Compound 17, 5-chloro-N6-(2,3-dihydro-1H-inden-4-yl)-4-methyl-1H-pyrazolo[3,4-b]pyridine-3,6-diamine]	6%
Cc1ccc(Nc2nc3[nH]nc(N)c3cc2F)cc1C [Compound 18, N6-(3,4-dimethylphenyl)-5-fluoro-1H-pyrazolo[3,4-b]pyridine-3,6-diamine]	7.8%
Nc1n[nH]c2nc(Nc3cccc4c3CCCC4)c(F)cc12 [Compound 19, 5-fluoro-N6-(5,6,7,8-tetrahydronaphthalen-1-yl)-1H-pyrazolo[3,4-b]pyridine-3,6-diamine]	9%
CCCc1cc2c(N)n[nH]c2nc1Nc1cccc2c1CCC2 [Compound 21, N6-(2,3-dihydro-1H-inden-4-yl)-5-propyl-1H-pyrazolo[3,4-b]pyridine-3,6-diamine]	3%
Nc1n[nH]c2nc(Nc3cccc4c3CCC4)c(-c3ccccc3)cc12 [Compound 23, N6-(2,3-dihydro-1H-inden-4-yl)-5-phenyl-1H-pyrazolo[3,4-b]pyridine-3,6-diamine]	5%

Molecule	Maximum DP cell proliferation (%)
Nc1n[nH]c2nc(Nc3cccc4ccccc34)c(F)cc12 [Compound 24, 5-fluoro-N6-(naphthalen-1-yl)-1H-pyrazolo[3,4-b]pyridine-3,6-diamine]	8%
Cc1cc2c(c(Nc3nc4[nH]nc(N)c4cc3F)c1)CCC2 [Compound 27, 5-fluoro-N6-(6-methyl-2,3-dihydro-1H-inden-4-yl)-1H-pyrazolo[3,4-b]pyridine-3,6-diamine]	6.8%
Nc1n[nH]c2nc(Nc3c4c(cc5c3CCC5)CCC4)c(F)cc12 [Compound 29, 5-fluoro-N6-(1,2,3,5,6,7-hexahydro-s-indacen-4-yl)-1H-pyrazolo[3,4-b]pyridine-3,6-diamine]	4.6%
Cc1ccc2cccc(Nc3nc4[nH]nc(N)c4cc3F)c2c1 [Compound 31, 5-fluoro-N6-(7-methyl-1-naphthyl)-1H-pyrazolo[3,4-b]pyridine-3,6-diamine]	3.2%
Cc1c(Nc2nc3[nH]nc(N)c3cc2F)cccc1N(C)C [Compound 33, N6-(3-(dimethylamino)-2-methylphenyl)-5-fluoro-1H-pyrazolo[3,4-b]pyridine-3,6-diamine]	6.3%
Nc1n[nH]c2nc(CNc3cccc4c3CCC4)c(F)cc12 [Compound 34, 5-fluoro-6-[(indan-4-ylamino)methyl]-1H-pyrazolo[3,4-b]pyridin-3-amine]	6.8%
Nc1n[nH]c2nc(Nc3cccc4ccccc34)ccc12 [Compound 35, N6-(naphthalen-1-yl)-1H-pyrazolo[3,4-b]pyridine-3,6-diamine]	1.2%
Nc1n[nH]c2nc(Nc3cccc4c3CCCC4)ccc12 [Compound 38, N6-(5,6,7,8-tetrahydronaphthalen-1-yl)-1H-pyrazolo[3,4-b]pyridine-3,6-diamine]	2.2%
Nc1n[nH]c2nc(Nc3cccc(C(F)F)c3F)cnc12 [Compound 39, N6-[3-(difluoromethyl)-2-fluoro-phenyl]-1H-pyrazolo[3,4-b]pyrazine-3,6-diamine]	7.9%
Nc1n[nH]c2nc(Nc3cccc4c3CCC4)c(Cl)c(Cl)c12 [Compound 42, 4,5-dichloro-N6-indan-4-yl-1H-pyrazolo[3,4-b]pyridine-3,6-diamine]	16%
Nc1n[nH]c2nc(Nc3cccc4c3CCCC4)cnc12 [Compound 45, N6-tetralin-5-yl-1H-pyrazolo[3,4-b]pyrazine-3,6-diamine]	7%
Nc1n[nH]c2nc(Nc3cccc4c3CC=C4)c(F)cc12 [Compound 48, 5-fluoro-N6-(1H-inden-7-yl)-1H-pyrazolo[3,4-b]pyridine-3,6-diamine]	11%
CC1(C)CCc2c(Nc3nc4[nH]nc(N)c4cc3F)cccc21 [Compound 51, N6-(1,1-dimethyl-2,3-dihydro-1H-inden-4-yl)-5-fluoro-1H-pyrazolo[3,4-b]pyridine-3,6-diamine]	8.7%
CC1(C)Cc2cccc(Nc3nc4[nH]nc(N)c4cc3F)c2C1 [Compound 52, N6-(2,2-dimethyl-2,3-dihydro-1H-inden-4-yl)-5-fluoro-1H-pyrazolo[3,4-b]pyridine-3,6-diamine]	11%
Nc1n[nH]c2nc(Nc3cccc4c3CNC4=O)c(F)cc12 [Compound 53, 4-((3-amino-5-fluoro-1H-pyrazolo[3,4-b]pyridin-6-yl)amino)isoindolin-1-one]	2.4%
Nc1n[nH]c2nc(Nc3cccc4c3CC(=O)N4)c(F)cc12 [Compound 54, 4-((3-amino-5-fluoro-1H-pyrazolo[3,4-b]pyridin-6-yl)amino)indolin-2-one]	4.4%
